For this test, the target named is T1, recombinant guanylate cyclase reporter cell line (Rattus norvegicus, UniProt P19686+P20595).
T1 construct: expressed in transfected cells
T1 sequence (P20595 1-619): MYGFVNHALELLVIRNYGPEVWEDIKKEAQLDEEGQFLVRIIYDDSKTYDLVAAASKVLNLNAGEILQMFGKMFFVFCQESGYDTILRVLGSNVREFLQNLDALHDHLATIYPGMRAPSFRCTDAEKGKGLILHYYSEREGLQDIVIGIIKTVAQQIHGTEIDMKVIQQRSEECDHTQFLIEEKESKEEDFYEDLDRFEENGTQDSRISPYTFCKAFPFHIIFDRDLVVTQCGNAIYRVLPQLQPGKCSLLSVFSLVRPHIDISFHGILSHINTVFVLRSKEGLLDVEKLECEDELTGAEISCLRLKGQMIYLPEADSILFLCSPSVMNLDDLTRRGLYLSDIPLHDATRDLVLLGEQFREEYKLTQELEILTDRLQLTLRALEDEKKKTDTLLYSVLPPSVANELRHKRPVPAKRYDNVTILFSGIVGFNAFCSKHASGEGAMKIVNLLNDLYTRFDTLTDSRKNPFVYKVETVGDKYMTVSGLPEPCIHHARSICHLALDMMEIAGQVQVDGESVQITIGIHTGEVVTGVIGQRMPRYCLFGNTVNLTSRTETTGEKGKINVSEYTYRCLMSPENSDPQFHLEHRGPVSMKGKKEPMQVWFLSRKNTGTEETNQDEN
T1 sequence (P19686 1-690): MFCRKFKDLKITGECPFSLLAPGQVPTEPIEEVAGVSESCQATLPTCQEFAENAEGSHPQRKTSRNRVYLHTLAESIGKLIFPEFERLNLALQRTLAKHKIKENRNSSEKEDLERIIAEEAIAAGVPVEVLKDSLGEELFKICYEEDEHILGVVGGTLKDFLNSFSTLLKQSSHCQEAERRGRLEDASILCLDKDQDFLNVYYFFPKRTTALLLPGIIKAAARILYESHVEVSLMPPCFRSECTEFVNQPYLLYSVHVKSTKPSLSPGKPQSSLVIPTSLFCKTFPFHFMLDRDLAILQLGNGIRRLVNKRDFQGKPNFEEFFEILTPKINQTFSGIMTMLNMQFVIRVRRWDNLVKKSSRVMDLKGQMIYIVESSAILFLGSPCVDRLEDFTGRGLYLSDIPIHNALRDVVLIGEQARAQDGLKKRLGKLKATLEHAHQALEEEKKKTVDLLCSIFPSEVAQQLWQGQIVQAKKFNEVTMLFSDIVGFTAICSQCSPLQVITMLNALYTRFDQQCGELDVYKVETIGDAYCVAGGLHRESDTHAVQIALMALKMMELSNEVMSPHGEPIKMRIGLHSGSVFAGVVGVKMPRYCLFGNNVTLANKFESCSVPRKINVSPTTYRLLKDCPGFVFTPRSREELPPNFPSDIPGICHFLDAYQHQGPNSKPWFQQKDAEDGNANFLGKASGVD
Description: B-2. Action on recombinant guanylate cyclase reporter cell line. The class given is cell-based. Conditions: MEC = minimal effective concentration; in some cases mean values from individual determinations. The procedure, abridged: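 Whole-cell reporter assay with recombinant guanylate cyclase; endpoint = minimal effective concentration.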

The results in this text go back to patent US9624214B2, “Amino-substituted imidazo[1,2-a]pyridinecarboxamides and their use” (BAYER PHARMA AKTIENGESELLSCHAFT, priority 2012, dated 2017).

Each structure is given as a SMILES string.

`COc1ccc(CC(C)(CN)NC(=O)c2c(C)nc3c(OCc4c(F)cccc4F)cc(C)cn23)cc1` (racemic) [Example 386, rac-N-[1-amino-3-(4-methoxyphenyl)-2-methylpropan-2-yl]-8-[(2,6-difluorobenzyl)oxy]-2,6-dimethylimidazo[1,2-a]pyridine-3-carboxamide]: the MEC worked out at 0.65 µM.

`Cc1cc(OCc2c(F)cccc2F)c2nc(C)c(C(=O)NC(CN)c3cnn(C)c3)n2c1` (racemic) [Example 387, rac-N-[2-amino-1-(1-methyl-1H-pyrazol-4-yl)ethyl]-8-[(2,6-difluorobenzyl)oxy]-2,6-dimethylimidazo[1,2-a]pyridine-3-carboxamide]: the MEC was 10.0 µM.

`Cc1cc(OCc2c(F)cccc2F)c2nc(C)c(C(=O)NC(CN)c3ccc4c(c3)OCCO4)n2c1` (racemic) [Example 388, rac-N-[2-amino-1-(2,3-dihydro-1,4-benzodioxin-6-yl)ethyl]-8-[(2,6-difluorobenzyl)oxy]-2,6-dimethylimidazo[1,2-a]pyridine-3-carboxamide]: the MEC is 0.30 µM.

Regarding `Cc1cc(OCc2c(F)cccc2F)c2nc(C)c(C(=O)NC(CN)c3csc4ccccc34)n2c1` (racemic) [Example 389, rac-N-[2-amino-1-(1-benzothiophen-3-yl)ethyl]-8-[(2,6-difluorobenzyl)oxy]-2,6-dimethylimidazo[1,2-a]pyridine-3-carboxamide], the MEC amounted to 1.00 µM.

As to `Cc1cc(OCc2c(F)cccc2F)c2nc(C)c(C(=O)NC(CN)c3cc(F)c(F)c(F)c3)n2c1` (racemic) [Example 390, rac-N-[2-amino-1-(3,4,5-trifluorophenyl)ethyl]-8-[(2,6-ifluorobenzyl)oxy]-2,6-dimethylimidazo[1,2-a]pyridine-3-carboxamide], the MEC amounted to 0.30 µM.

Consider `CSCCC(CN)NC(=O)c1c(C)nc2c(OCc3c(F)cccc3F)cc(C)cn12` (racemic) [Example 391, rac-N-[1-amino-4-(methylsulfanyl)butan-2-yl]-8-[(2,6-difluorobenzyl)oxy]-2,6-dimethylimidazo[1,2-a]pyridine-3-carboxamide], for which the MEC was found to be 0.10 µM.

Regarding `Cc1cc(OCc2c(F)cccc2F)c2nc(C)c(C(=O)NC(CN)c3cccc(OC(F)F)c3)n2c1` (racemic) [Example 392, rac-N-{2-amino-1-[3-(difluoromethoxy)phenyl]ethyl}-8-[(2,6-difluorobenzyl)oxy]-2,6-dimethylimidazo[1,2-a]pyridine-3-carboxamide], the MEC came to 1.00 µM.

For the molecule `Cc1cc(OCc2c(F)cccc2F)c2nc(C)c(C(=O)NC(CN)c3cccc(OCCO)c3)n2c1` (racemic) [Example 393, rac-N-{2-amino-1-[3-(2-hydroxyethoxy)phenyl]ethyl}-8-[(2,6-difluorobenzyl)oxy]-2,6-dimethylimidazo[1,2-a]pyridine-3-carboxamide], the MEC was found to be 1.00 µM.

With `Cc1cc(OCc2c(F)cccc2F)c2nc(C)c(C(=O)NC(CN)c3cccc(C(F)(F)F)c3)n2c1` (racemic) [Example 394, rac-N-{2-amino-1-[3-(trifluoromethyl)phenyl]ethyl}-8-[(2,6-difluorobenzyl)oxy]-2,6-dimethylimidazo[1,2-a]pyridine-3-carboxamide], the MEC turned out to be 0.30 µM.

As to `Cc1cc(OCc2c(F)cccc2F)c2nc(C)c(C(=O)NC(CN)c3ccc4ncccc4c3)n2c1` (racemic) [Example 395, rac-N-[2-amino-1-(quinolin-6-yl)ethyl]-8-[(2,6-difluorobenzyl)oxy]-2,6-dimethylimidazo[1,2-a]pyridine-3-carboxamide], the MEC turned out to be 1.00 µM.

As for `CC(=O)Nc1cccc(C(CN)NC(=O)c2c(C)nc3c(OCc4c(F)cccc4F)cc(C)cn23)c1` (racemic) [Example 396, rac-N-[1-(3-acetamidophenyl)-2-aminoethyl]-8-[(2,6-difluorobenzyl)oxy]-2,6-dimethylimidazo[1,2-a]pyridine-3-carboxamide], the MEC amounted to 3.00 µM.

In the case of `CCOC(=O)c1cccc(C(CN)NC(=O)c2c(C)nc3c(OCc4c(F)cccc4F)cc(C)cn23)n1` (racemic) [Example 397, rac-ethyl 6-{2-amino-1-[({8-[(2,6-difluorobenzyl)oxy]-2,6-dimethylimidazo[1,2-a]pyridin-3-yl}carbonyl)amino]ethyl}pyridine-2-carboxylate], the MEC was determined as 1.00 µM.

For the molecule `Cc1cc(OCc2c(F)cccc2F)c2nc(C)c(C(=O)NC(CN)c3ccc(C#N)cc3)n2c1` (racemic) [Example 398, rac-N-[2-amino-1-(4-cyanophenyl)ethyl]-8-[(2,6-difluorobenzyl)oxy]-2,6-dimethylimidazo[1,2-a]pyridine-3-carboxamide], the MEC came out at 0.30 µM.

`COC(=O)c1cccc(C(N)CNC(=O)c2c(C)nc3c(OCc4c(F)cccc4F)cc(C)cn23)c1` (racemic) [Example 399, rac-Methyl 3-{1-amino-2-[({8-[(2,6-difluorobenzyl)oxy]-2,6-dimethylimidazo[1,2-a]pyridin-3-yl}carbonyl)amino]ethyl}benzoate]: the MEC is 1.00 µM.

For `Cc1cc(OCc2c(F)cccc2F)c2nc(C)c(C(=O)NCC(N)C#N)n2c1` (racemic) [Example 400, rac-N-(2-amino-2-cyanoethyl)-8-[(2,6-difluorobenzyl)oxy]-2,6-dimethylimidazo[1,2-a]pyridine-3-carboxamide], the MEC was 0.65 µM.

`CC=CCC(N)CNC(=O)c1c(C)nc2c(OCc3c(F)cccc3F)cc(C)cn12` (racemic) [Example 406, rac-N-[(4E/Z)-2-aminohex-4-en-1-yl]-8-[(2,6-difluorobenzyl)oxy]-2,6-dimethylimidazo[1,2-a]pyridine-3-carboxamide]: the MEC was 0.10 µM.

As for `CSCCC(N)CNC(=O)c1c(C)nc2c(OCc3c(F)cccc3F)cc(C)cn12` (racemic) [Example 412, rac-N-[2-amino-4-(methylsulfanyl)butyl]-8-[(2,6-difluorobenzyl)oxy]-2,6-dimethylimidazo[1,2-a]pyridine-3-carboxamide], the MEC was found to be 0.10 µM.

In the case of `Cc1cc(OCc2c(F)cccc2F)c2nc(C)c(C(=O)NCC(N)CCS(C)(=O)=O)n2c1` (racemic) [Example 413, rac-N-[2-amino-4-(methylsulfonyl)butyl]-8-[(2,6-difluorobenzyl)oxy]-2,6-dimethylimidazo[1,2-a]pyridine-3-carboxamide], the MEC came to 5.5 µM.

In the case of `Cc1cc(OCc2c(F)cccc2F)c2nc(C)c(C(=O)NCC3CS(=O)(=O)CCN3)n2c1` (racemic) [Example 414, rac-8-[(2,6-difluorobenzyl)oxy]-N-[(1,1-dioxidothiomorpholin-3-yl)methyl]-2,6-dimethylimidazo[1,2-a]pyridine-3-carboxamide], the MEC came to 0.30 µM.

Regarding `Cc1cc(OCc2c(F)cccc2F)c2nc(C)c(C(=O)NCC(N)c3csc(C)n3)n2c1` (racemic) [Example 415, rac-N-[2-amino-2-(2-methyl-1,3-thiazol-4-yl)ethyl]-8-[(2,6-difluorobenzyl)oxy]-2,6-dimethylimidazo[1,2-a]pyridine-3-carboxamide Triformate], the MEC amounted to 5.5 µM.

Take `Cc1cc(OCc2c(F)cccc2F)c2nc(C)c(C(=O)NC(C#N)CN)n2c1` (racemic) [Example 416, rac-N-(2-amino-1-cyanoethyl)-8-[(2,6-difluorobenzyl)oxy]-2,6-dimethylimidazo[1,2-a]pyridine-3-carboxamide]: the MEC worked out at 1.00 µM.

With `CCOCC(CN)NC(=O)c1c(C)nc2c(OCc3c(F)cccc3F)cccn12` (single isomer, unassigned) [Example 56, ent-N-(1-amino-3-ethoxypropan-2-yl)-8-[(2,6-difluorobenzyl)oxy]-2-methylimidazo[1,2-a]-pyridine-3-carboxamide], the MEC was determined as 1.00 µM.

Take `CCOCC(CN)NC(=O)c1c(C)nc2c(OCc3c(F)cccc3F)cc(Cl)cn12` (single isomer, unassigned) [Example 57, ent-N-(1-amino-3-ethoxypropan-2-yl)-6-chloro-8-[(2,6-difluorobenzyl)oxy]-2-methylimidazo[1,2-a]-pyridine-3-carboxamide]: the MEC is 0.30 µM.
